Experimental data taken from patent US20240376096A1, “SMALL MOLECULE CYCLIN DEPENDENT KINASE 4/6 (CDK4/6) AND IKZF2 (HELIOS) DEGRADERS AND METHODS OF USE THEREOF” (DANA-FARBER CANCER INSTITUTE, INC., priority 2021, published 2024).

What was measured:
Format in all cases: cell-based
Jurkat cells [1] = assay: Propidium iodide staining for DNA content (G1 arrest); conditions: 100 nM, 24 h
Description: FIG. 3A is a set of histograms and the quantification of the DNA content using propidium iodide (PI) staining after treatment of Jurkat cells with the indicated compounds (palbociclib, DKY709, 18, Ia-6, 16, Ia-8, and 17) at 100 nM for 24 h.
The structure of 18 (N-(4-(4-(6-((6-acetyl-8-cyclopentyl-5-methyl-7-oxo-7,8-dihydropyrido[2,3-d]pyrimidin-2-yl)amino)pyridin-3-yl)piperazin-1-yl)butyl)-2-((2-(1-methyl-2,6-dioxopiperidin-3-yl)-1,3-dioxoisoindolin-4-yl)amino)acetamide) is shown here: […]

Jurkat cells [2] = assay: IL-2 levels by ELISA after TCR stimulation; conditions: Jurkat cells pre-treated with 1 μM for 24 h, then TCR-stimulated for 18 h
Description: FIG. 4 is a graph of [IL2] for the indicated compounds in Jurkat cells upon TCR-stimulation with a-CD3/CD28.
Quantification of IL-2 levels by ELISA from Jurkat cells pre-treated with 1 μM of the indicated compounds for 24 h and then TCR-stimulated for 18 h. Results are shown in FIG. 4 as mean±SD (untreated, n=3; other conditions, n=4) (*p<0.05). […] The structure of 19 (N-(4-(4-(6-((6-acetyl-8-cyclopentyl-5-methyl-7-oxo-7,8-dihydropyrido[2,3-d]pyrimidin-2-yl)amino)pyridin-3-yl)piperazin-1-yl)butyl)-2-((2-(2,6-dioxopiperidin-3-yl)-1,3-dioxoisoindolin-4-yl)oxy)acetamide) is shown here: […]

CDK6 = target: T1, CDK6 (Homo sapiens, UniProt Q00534); assay: Immunoblot of CDK6 levels in Jurkat cells; conditions: 1 μM; for degradation of CDK6 (immunoblot): 4 h; for protein abundance of CDK6 (immunoblot): 16 h
T1 construct: immunoblots from Jurkat cells treated with the indicated compounds; endogenous in cells; host or cells: Jurkat cells
T1 sequence (Q00534 whole entry): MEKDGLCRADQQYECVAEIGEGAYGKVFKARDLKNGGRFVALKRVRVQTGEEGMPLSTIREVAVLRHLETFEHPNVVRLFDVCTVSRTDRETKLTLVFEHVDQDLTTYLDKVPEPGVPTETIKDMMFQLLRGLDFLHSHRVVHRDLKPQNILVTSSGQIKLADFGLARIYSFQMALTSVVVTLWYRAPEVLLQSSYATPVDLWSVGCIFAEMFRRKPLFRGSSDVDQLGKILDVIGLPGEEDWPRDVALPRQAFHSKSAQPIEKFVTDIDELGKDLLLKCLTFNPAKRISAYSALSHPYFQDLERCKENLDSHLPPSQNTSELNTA
Description: (§1) FIG. 1A is a set of immunoblots of Jurkat cells treated with 1 μM of the indicated (DKY709 and Ia-1 to Ia-8) compounds for 4 hours, showing the levels of Ikaros, Helios, CDK4, CDK6, and tubulin for each compound.
(§2) FIG. 1B is a set of immunoblots of Jurkat cells treated with the Helios degrader DKY709, the triple degrader Ia-8, and the paired negative control compound 17 for 4 hours, showing the levels of Ikaros, Helios, CDK4, CDK6, and tubulin for each compound at 0.1 μM and 1 μM.
(§3) FIG. 2 is a set of immunoblots of Jurkat cells treated with the indicated compounds (palbociclib, DKY709, Ia-8, and 17) at 0.1 μM and 1 μM for 16 hours.
(§4) The structure of DKY709 (3-(5-(1-benzylpiperidin-4-yl)-1-oxoisoindolin-2-yl)piperidine-2,6-dione) is shown here: […]

Helios = target: T2, Helios (Homo sapiens, UniProt Q96SW2+Q9UKS7); assay: Immunoblot of Helios levels in Jurkat cells; conditions: 1 μM; for degradation of Helios (immunoblot): 4 h; for protein abundance of Helios (immunoblot): 16 h
T2 construct: immunoblots from Jurkat cells treated with the indicated compounds; endogenous in cells; host or cells: Jurkat cells
T2 sequence (Q9UKS7 whole entry): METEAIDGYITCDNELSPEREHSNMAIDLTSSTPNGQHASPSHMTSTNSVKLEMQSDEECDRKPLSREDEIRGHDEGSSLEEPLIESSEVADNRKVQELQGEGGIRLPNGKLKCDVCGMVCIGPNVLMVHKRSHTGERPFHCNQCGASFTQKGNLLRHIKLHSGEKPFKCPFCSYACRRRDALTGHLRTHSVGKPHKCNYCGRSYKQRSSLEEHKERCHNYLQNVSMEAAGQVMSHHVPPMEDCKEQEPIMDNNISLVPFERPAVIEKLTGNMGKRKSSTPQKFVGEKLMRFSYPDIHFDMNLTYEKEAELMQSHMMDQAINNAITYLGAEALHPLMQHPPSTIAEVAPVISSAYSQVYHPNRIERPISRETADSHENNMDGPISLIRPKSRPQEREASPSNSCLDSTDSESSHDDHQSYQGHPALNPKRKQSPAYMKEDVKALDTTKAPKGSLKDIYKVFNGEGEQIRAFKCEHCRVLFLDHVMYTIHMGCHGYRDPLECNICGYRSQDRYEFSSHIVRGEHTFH
T2 sequence (Q96SW2 whole entry): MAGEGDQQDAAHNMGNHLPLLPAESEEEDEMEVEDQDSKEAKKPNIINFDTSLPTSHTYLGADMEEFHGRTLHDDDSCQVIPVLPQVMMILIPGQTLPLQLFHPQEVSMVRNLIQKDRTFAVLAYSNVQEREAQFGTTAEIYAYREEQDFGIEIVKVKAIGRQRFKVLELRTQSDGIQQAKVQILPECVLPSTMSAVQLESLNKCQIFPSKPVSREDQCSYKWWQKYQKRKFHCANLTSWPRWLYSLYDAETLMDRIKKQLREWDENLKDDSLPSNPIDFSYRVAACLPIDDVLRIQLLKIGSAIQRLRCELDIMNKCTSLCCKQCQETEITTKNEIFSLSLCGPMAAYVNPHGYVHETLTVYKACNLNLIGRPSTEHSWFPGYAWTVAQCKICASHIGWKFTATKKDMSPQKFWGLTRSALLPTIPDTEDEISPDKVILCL
T2 sequence (Q16531 whole entry partner): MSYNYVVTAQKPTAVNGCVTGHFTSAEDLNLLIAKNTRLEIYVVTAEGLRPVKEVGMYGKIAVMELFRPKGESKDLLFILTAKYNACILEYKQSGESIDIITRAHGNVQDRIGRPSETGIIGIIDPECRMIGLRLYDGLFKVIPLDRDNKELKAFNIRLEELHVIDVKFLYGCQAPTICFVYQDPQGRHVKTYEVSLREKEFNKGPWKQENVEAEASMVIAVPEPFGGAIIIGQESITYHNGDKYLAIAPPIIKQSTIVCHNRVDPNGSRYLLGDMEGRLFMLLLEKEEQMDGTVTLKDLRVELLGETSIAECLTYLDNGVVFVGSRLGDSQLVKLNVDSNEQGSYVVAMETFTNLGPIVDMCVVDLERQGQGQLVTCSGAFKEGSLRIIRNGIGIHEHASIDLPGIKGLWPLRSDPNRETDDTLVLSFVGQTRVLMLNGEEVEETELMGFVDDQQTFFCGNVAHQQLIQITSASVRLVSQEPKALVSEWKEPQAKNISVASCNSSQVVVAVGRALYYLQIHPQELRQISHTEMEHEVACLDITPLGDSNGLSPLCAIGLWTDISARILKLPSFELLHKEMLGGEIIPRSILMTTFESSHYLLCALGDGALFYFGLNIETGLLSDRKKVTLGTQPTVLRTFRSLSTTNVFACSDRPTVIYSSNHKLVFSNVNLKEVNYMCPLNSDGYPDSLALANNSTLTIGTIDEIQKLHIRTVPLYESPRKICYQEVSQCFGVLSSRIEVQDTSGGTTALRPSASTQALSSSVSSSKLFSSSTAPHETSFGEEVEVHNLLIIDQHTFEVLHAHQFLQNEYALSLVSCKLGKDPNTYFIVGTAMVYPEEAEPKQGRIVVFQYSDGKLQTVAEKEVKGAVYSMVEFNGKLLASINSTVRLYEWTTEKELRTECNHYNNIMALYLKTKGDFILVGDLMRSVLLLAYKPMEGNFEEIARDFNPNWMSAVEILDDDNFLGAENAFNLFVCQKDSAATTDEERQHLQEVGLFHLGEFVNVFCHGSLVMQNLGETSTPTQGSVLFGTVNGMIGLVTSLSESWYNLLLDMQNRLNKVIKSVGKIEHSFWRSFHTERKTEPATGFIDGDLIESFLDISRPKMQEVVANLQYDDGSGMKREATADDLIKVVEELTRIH
Description: as §1, §2, §3, §4

CDK4 = target: T3, CDK4 (Homo sapiens, UniProt P11802); assay: Immunoblot of CDK4 levels in Jurkat cells; conditions: 1 μM; for degradation of CDK4 (immunoblot): 4 h; for protein abundance of CDK4 (immunoblot): 16 h
T3 construct: immunoblots from Jurkat cells treated with the indicated compounds; endogenous in cells; host or cells: Jurkat cells
T3 sequence (P11802 whole entry): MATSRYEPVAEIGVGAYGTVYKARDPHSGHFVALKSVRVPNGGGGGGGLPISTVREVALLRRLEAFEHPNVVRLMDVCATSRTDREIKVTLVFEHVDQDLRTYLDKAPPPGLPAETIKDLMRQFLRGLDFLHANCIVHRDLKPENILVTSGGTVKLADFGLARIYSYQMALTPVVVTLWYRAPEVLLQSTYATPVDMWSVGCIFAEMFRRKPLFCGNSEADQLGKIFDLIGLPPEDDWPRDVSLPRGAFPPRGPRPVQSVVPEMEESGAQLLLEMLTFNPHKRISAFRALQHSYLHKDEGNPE
Description: as §1, §2, §3, §4

phosphorylated Rb = assay: Immunoblot of phosphorylated Rb in Jurkat cells; conditions: 1 μM, 16 h
Description: as §3

Jurkat cells [3] = assay: Cell proliferation quantified by CellTiter-Glo; conditions: Homo sapiens, 72 h, dose curve, 3 d, read-out: anti-proliferative activity
Excerpt: FIG. 3B is a graph of normalized luminescence versus concentration (log[inhibitor], M) of the indicated compounds (palbociclib, Ia-8, and 17) assessed by CellTiterGlo after treatment of Jurkat cells for 3 d.

Ikaros = target: T4, Ikaros (Homo sapiens, UniProt Q13422); assay: Immunoblot of Ikaros levels in Jurkat cells; conditions: 1 μM, 4 h
T4 construct: endogenous in cells; host or cells: Jurkat cells
T4 sequence (Q96SW2 whole entry partner): as the sequence (Q96SW2 whole entry) above
T4 sequence (Q16531 whole entry partner): as the sequence (Q16531 whole entry partner) above
T4 sequence (Q13422 whole entry): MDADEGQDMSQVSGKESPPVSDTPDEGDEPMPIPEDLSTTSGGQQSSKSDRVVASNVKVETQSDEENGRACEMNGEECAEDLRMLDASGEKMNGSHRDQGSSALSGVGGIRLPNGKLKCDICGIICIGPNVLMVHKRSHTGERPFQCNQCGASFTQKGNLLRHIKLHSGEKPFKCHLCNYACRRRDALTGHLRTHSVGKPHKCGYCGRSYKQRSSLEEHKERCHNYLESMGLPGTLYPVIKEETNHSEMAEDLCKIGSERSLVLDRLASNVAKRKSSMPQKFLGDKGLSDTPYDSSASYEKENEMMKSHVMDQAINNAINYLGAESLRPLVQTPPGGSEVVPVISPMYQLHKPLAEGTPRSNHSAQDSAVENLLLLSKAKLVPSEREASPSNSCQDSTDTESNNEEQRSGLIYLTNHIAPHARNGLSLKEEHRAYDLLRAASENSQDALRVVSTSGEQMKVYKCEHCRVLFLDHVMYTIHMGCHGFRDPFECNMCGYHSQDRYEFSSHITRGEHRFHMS
Description: as §1, §2, §4

Row | degradation of CDK6 (immunoblot) (CDK6) | degradation of Helios (immunoblot) (Helios) | protein abundance of Helios (immunoblot) (Helios) | degradation of CDK4 (immunoblot) (CDK4) | IC50 (Jurkat cells [3]) [nM] | degradation of Ikaros (immunoblot) (Ikaros) | Compound | induction of G1 arrest (Jurkat cells [1]) | IL-2 secretion (Jurkat cells [2]) | protein abundance of CDK6 (immunoblot) (CDK6) | protein abundance of CDK4 (immunoblot) (CDK4) | levels of phosphorylated Rb (immunoblot) (phosphorylated Rb)
1 | had no degradation activity | had no degradation activity | had minimal effects | had no degradation activity | 244 | – | CC(=O)c1c(C)c2cnc(Nc3ccc(N4CCN(CCOc5ccc(CN6CCC(c7ccc8c(c7)CN(C7CCC(=O)N(C)C7=O)C8=O)CC6)cc5)CC4)cn3)nc2n(C2CCCC2)c1=O (centres unmarked) [compound 17, 3-(5-(1-(4-(2-(4-(6-((6-acetyl-8-cyclopentyl-5-methyl-7-oxo-7,8-dihydropyrido[2,3-d]pyrimidin-2-yl)amino)pyridin-3-yl)piperazin-1-yl)ethoxy)benzyl)piperidin-4-yl)-1-oxoisoindolin-2-yl)-1-methylpiperidine-2,6-dione] | did not | had activity similar to that of palbociclib | had minimal effects | had minimal effects | had minimal effects
2 | – | – | – | – | – | – | Nc1cccc2c1CN(C1CCC(=O)NC1=O)C2=O (centres unmarked) [Lenalidomide, reference compound] | – | elevated IL-2 secretion, although it did not reach statistical significance | – | – | –
3 | did not affect CDK4 or CDK6 abundance | only induced degradation of Helios | induced Helios degradation | did not affect CDK4 or CDK6 abundance | – | – | O=C1CCC(N2Cc3cc(C4CCN(Cc5ccccc5)CC4)ccc3C2=O)C(=O)N1 (centres unmarked) [DKY709, 3-(5-(1-benzylpiperidin-4-yl)-1-oxoisoindolin-2-yl)piperidine-2,6-dione, reference compound] | but not DKY709, induced G1 arrest | elevated IL-2 secretion, although it did not reach statistical significance | – | – | without affecting the levels of phosphorylated Rb

Row | Compound | degradation of CDK6 (immunoblot) (CDK6) | degradation of Helios (immunoblot) (Helios) | protein abundance of Helios (immunoblot) (Helios) | degradation of CDK4 (immunoblot) (CDK4) | IC50 (Jurkat cells [3]) [nM] | degradation of Ikaros (immunoblot) (Ikaros) | induction of G1 arrest (Jurkat cells [1]) | IL-2 secretion (Jurkat cells [2]) | protein abundance of CDK6 (immunoblot) (CDK6) | protein abundance of CDK4 (immunoblot) (CDK4) | levels of phosphorylated Rb (immunoblot) (phosphorylated Rb)
4 | CC(=O)c1c(C)c2cnc(Nc3ccc(N4CCN(CCOc5ccc(CN6CCC(c7ccc8c(c7)CN(C7CCC(=O)NC7=O)C8=O)CC6)cc5)CC4)cn3)nc2n(C2CCCC2)c1=O (centres unmarked) [Ia-8, 3-(5-(1-(4-(2-(4-(6-((6-acetyl-8-cyclopentyl-5-methyl-7-oxo-7,8-dihydropyrido[2,3-d]pyrimidin-2-yl)amino)pyridin-3-yl)piperazin-1-yl)ethoxy)benzyl)piperidin-4-yl)-1-oxoisoindolin-2-yl)piperidine-2,6-dione] | induced the degradation of CDK4, CDK6, and Helios | induced the degradation of CDK4, CDK6, and Helios | induced the triple degradation of Helios, CDK4, and CDK6 | induced the degradation of CDK4, CDK6, and Helios | 166 | but not Ikaros | induced G1 arrest | induced elevated levels of IL2 that were comparable to that of 18 | induced the triple degradation of Helios, CDK4, and CDK6 | induced the triple degradation of Helios, CDK4, and CDK6 | reduced the levels of phosphorylated Rb
